Test system: Plasmodium berghei
Experiment: Antimalarial activity against Plasmodium berghei
Format: functional

`CCCCCCN(CCCCCC)CC(O)c1cc(-c2ccc(OC)cc2)nc2cc(Cl)c(OC)cc12` (configuration not stated) and `CCCCCCN(CCCCCC)CC(O)c1cc(-c2ccc(Cl)cc2)nc2c(Cl)cc(Cl)cc12` (configuration not stated) are within 0.2 log units of each other in “log(1/C)” value: 3.38 for the first, 3.37 for the second.

Compared with `OC(CC1CCCCN1)c1cc2cc(C(F)(F)F)cc(C(F)(F)F)c2c2ccccc12` (configuration not stated), `OC(CC1CCCCN1)c1cc2cccc(C(F)(F)F)c2c2cc(C(F)(F)F)ccc12` (configuration not stated) is lower in “log(1/C)” value: 4.19 for the first, 3.54 for the second.

Compared with `CCCCN(CCCC)CC(O)c1cc(-c2ccc(OC)cc2)nc(-c2ccc(Cl)c(Cl)c2)c1` (configuration not stated), `CCCCN(CCCC)CC(O)c1cc(-c2ccc(OC)cc2)nc(-c2ccc(OC)cc2)c1` (configuration not stated) is lower in “log(1/C)” value: 2.68 for the first, 2.17 for the second.

Compared with `CCCCN(CCCC)CC(O)c1ccnc2cc(C(F)(F)F)ccc12` (configuration not stated), `CCCCN(CCCC)CC(O)c1cc2ccc(C(F)(F)F)cc2c2ccsc12` (configuration not stated) is higher in “log(1/C)” value: 2.51 for the first, 2.81 for the second.

Going from `CCCN(CCC)CC(O)c1cc2ccc(Cl)c(Cl)c2c2cc(C(F)(F)F)ccc12` (configuration not stated) to `CCCN(CCC)CC(O)c1cc2ccc(C(F)(F)F)cc2c2ccsc12` (configuration not stated), the “log(1/C)” value falls from 4.03 to 2.82.

Compared with `OC(CNCc1ccccc1)c1cc(-c2ccc(Cl)c(Cl)c2)nc2c(Cl)cc(Cl)cc12` (configuration not stated), `OC(CN1CCCCC1)c1cc(-c2ccccc2)nc2c(Cl)cc(Cl)cc12` (configuration not stated) is lower in “log(1/C)” value: 3.66 for the first, 3.17 for the second.

Compared with `CCCCN(CCCC)CC(O)c1c(OC)c(-c2ccc(Cl)cc2)nc2c(C)cc(C)cc12` (configuration not stated), `CCCCN(CCCC)CC(O)c1cc(-c2ccc(Cl)cc2)nc2cc(Cl)c(C)cc12` (configuration not stated) is higher in “log(1/C)” value: 3.26 for the first, 4.22 for the second.

Compared with `CCN(CC)CC(O)c1cc(-c2cccs2)nc2cccc(Br)c12` (configuration not stated), `CCN(CC)CC(O)c1cc2ccc(Cl)cc2nc1-c1ccc(Cl)cc1` (configuration not stated) is lower in “log(1/C)” value: 2.38 for the first, 2.11 for the second.

Compared with `CCCCNCC(O)c1cc(-c2ccc(Cl)cc2)cc2cc(Cl)ccc12` (configuration not stated), `CCCCN(CCCC)CC(O)c1cc(-c2ccc(Cl)cc2)nc2cc(Cl)ccc12` (configuration not stated) is higher in “log(1/C)” value: 3.29 for the first, 3.91 for the second.

Compared with `CCCCN(CCCC)CC(O)c1cc(-c2ccccc2)nc(-c2ccc(Cl)cc2)c1` (configuration not stated), `CCCCN(CCCC)CC(O)c1cc(-c2ccccc2)nc(-c2ccccc2)c1` (configuration not stated) is lower in “log(1/C)” value: 2.91 for the first, 2.51 for the second.

`CCCCCCCCN(CCCCCCCC)CC(O)c1cc(-c2ccccc2)nc2cc(Cl)ccc12` (configuration not stated) and `CCCCCCCN(CCCCCCC)CC(O)c1cc2ccccc2c2ccc(Cl)cc12` (configuration not stated) are within 0.2 log units of each other in “log(1/C)” value: 2.82 for the first, 2.97 for the second.

`OC(CC1CCCCN1)c1cc2ccc(C(F)(F)F)cc2c2ccc(Cl)cc12` (configuration not stated) and `OC(CC1CCCCN1)c1cc2cc(Cl)ccc2c2c(Cl)cc(Cl)cc12` (configuration not stated) are within 0.2 log units of each other in “log(1/C)” value: 4.12 for the first, 4.29 for the second.

First: CCCCCN(CCCCC)CC(O)c1cc(-c2ccccc2)nc2ccccc12 (configuration not stated)
Second: CCCCN(CCCC)CC(O)c1c2ccccc2cc2ccccc12 (configuration not stated)
The “log(1/C)” value of the first is higher: 2.57 for the first, 2.35 for the second.

Compared with `CCCCN(CCCC)CC(O)c1ccc(-c2ccc(Cl)cc2)c2c(Cl)cc(Cl)cc12` (configuration not stated), `CCCCN(CCCC)CC(O)c1cc2cc(Cl)ccc2c2c(Cl)cc(Cl)cc12` (configuration not stated) is higher in “log(1/C)” value: 3.33 for the first, 3.91 for the second.

Compared with `OC(CC1CCCCN1)c1c2c(nc3c(Cl)cc(Cl)cc13)-c1ccc(Cl)cc1CC2` (configuration not stated), `COc1cc2c(C(O)CC3CCCCN3)cc(-c3ccc(Cl)c(Cl)c3)cc2cc1Cl` (configuration not stated) is lower in “log(1/C)” value: 3.69 for the first, 3.14 for the second.

Going from `CCCCN(CCCC)CC(O)c1cc2c(Cl)cc(Cl)cc2c2c(Cl)cc(Cl)cc12` (configuration not stated) to `CCCCN(CCCC)CC(O)c1cc2c(Cl)cc(Cl)cc2c2cc(Cl)sc12` (configuration not stated), the “log(1/C)” value falls from 4.05 to 3.53.

`COc1cc2c(C(O)CC3CCCCN3)cc(-c3ccc(Cl)cc3)cc2cc1Cl` (configuration not stated) and `CCCCN(CCCC)CC(O)c1cc(-c2ccc(Cl)cc2)cc2cc(Cl)c(OC)cc12` (configuration not stated) are within 0.2 log units of each other in “log(1/C)” value: 3 for the first, 2.96 for the second.

Compared with `CCCCN(CCCC)CC(O)c1cccc2cc3cccc(Cl)c3cc12` (configuration not stated), `CCCCN(CCCC)CC(O)c1cc2ccccc2c2c(Cl)cccc12` (configuration not stated) is higher in “log(1/C)” value: 2.26 for the first, 2.77 for the second.

First: CCOc1ccc2nccc(C(O)C[N+]34CCC(CC3)C(CC)C4)c2c1 (configuration not stated)
Second: CCCCN(CCCC)CC(O)c1cc(C23CC4CC(CC(C4)C2)C3)nc2ccc(Cl)cc12 (configuration not stated)
The “log(1/C)” value of the first is lower: 1.97 for the first, 3.05 for the second.

Compared with `CCCCCCCN(CCCCCCC)CC(O)c1cc2c(Cl)cc(Cl)cc2c2cc(Cl)sc12` (configuration not stated), `CCCCN(CCCC)CC(O)c1cc2c(Cl)cc(Cl)cc2c2cc(C)sc12` (configuration not stated) is higher in “log(1/C)” value: 2.67 for the first, 3.3 for the second.

`OC(CC1CCCCN1)c1cc(-c2ccc(Cl)cc2)nc2c1ccc1ccccc12` (configuration not stated) and `Cc1cccc2c(C(O)CC3CCCCN3)cc(-c3ccccc3)nc12` (configuration not stated) are within 0.2 log units of each other in “log(1/C)” value: 3.2 for the first, 3.38 for the second.

Compared with `CCCCN(CCCC)CC(O)c1cc(-c2cccc(C(F)(F)F)c2)nc(-c2ccc(Cl)c(Cl)c2)c1` (configuration not stated), `CCCCN(CCCC)CCC(O)c1cc(-c2ccc(C(F)(F)F)cc2)nc(-c2ccc(C(F)(F)F)cc2)c1` (configuration not stated) is higher in “log(1/C)” value: 2.9 for the first, 4.57 for the second.

First: CC(C)NCCC(O)c1cc2ccc(C(F)(F)F)cc2c2cc(C(F)(F)F)ccc12 (configuration not stated)
Second: CCCC(CCC)NCC(O)c1cc2ccc(C(F)(F)F)cc2c2cc(C(F)(F)F)ccc12 (configuration not stated)
The “log(1/C)” value of the first is lower: 3.89 for the first, 4.33 for the second.

`CCCCN(CCCC)CC(O)c1cccc2c1ccc1ccccc12` (configuration not stated) and `CCCCN(CCCC)CC(O)c1cccc2c1cc(Br)c1ccccc12` (configuration not stated) are within 0.2 log units of each other in “log(1/C)” value: 2.06 for the first, 2.15 for the second.

Going from `CCCCN(CCCC)CC(O)c1cc(-c2ccc(F)cc2)nc2cc(F)ccc12` (configuration not stated) to `CCCCN(CCCC)CC(O)c1cc(-c2ccc(I)cc2)nc2ccc(I)cc12` (configuration not stated), the “log(1/C)” value rises from 2.52 to 4.22.

`CCCCN(CCCC)CC(O)c1cccc2cc3cc(Cl)c(Cl)cc3cc12` (configuration not stated) and `CCCCN(CCCC)CC(O)c1cc2ccccc2c2cccc(Cl)c12` (configuration not stated) are within 0.2 log units of each other in “log(1/C)” value: 2.48 for the first, 2.32 for the second.

Going from `CCCCCCCN(CCCCCCC)CC(O)c1cc2ccc(I)cc2c2cc(C(F)(F)F)ccc12` (configuration not stated) to `CCCCCCCN(CCCCCCC)CC(O)c1cc2ccc(Br)cc2c2sccc12` (configuration not stated), the “log(1/C)” value falls from 3.55 to 2.67.

First: CCCCN(CCCC)CC(O)c1cc2ccccc2c2ccsc12 (configuration not stated)
Second: CCCCN(CCCC)CC(O)c1cc2cc(Br)ccc2c2cc(Br)ccc12 (configuration not stated)
The “log(1/C)” value of the first is lower: 2.22 for the first, 4.17 for the second.

Compared with `CCCCN(CCCC)CC(O)c1cc2cccc(Br)c2c2cc(C(F)(F)F)ccc12` (configuration not stated), `CCCCN(CCCC)CC(O)c1cc2ccc(Cl)cc2c2cc(OC)ccc12` (configuration not stated) is lower in “log(1/C)” value: 3.52 for the first, 2.49 for the second.

`CCCCN(CCCC)CC(O)c1cc(Oc2ccc(Cl)cc2)cc2c(Cl)cc(Cl)cc12` (configuration not stated) and `CCCCN(CCCC)CC(O)c1cc(Oc2ccc(Cl)cc2)c(Br)c2cc(Cl)ccc12` (configuration not stated) are within 0.2 log units of each other in “log(1/C)” value: 2.57 for the first, 2.62 for the second.

Going from `CCCCN(CCCC)CC(O)c1cc(/C=C/c2ccc(Cl)cc2)cc(C(F)(F)F)c1` (configuration not stated) to `CCCCN(CCCC)CC(O)c1cc2c(Cl)cc(Cl)cc2c2ncccc12` (configuration not stated), the “log(1/C)” value falls from 4.37 to 2.94.

Going from `CCOC(CCCNCC(O)c1cc2ccc(C(F)(F)F)cc2c2cc(C(F)(F)F)ccc12)OCC` (configuration not stated) to `OC(CNC1CCCCC1)c1cc(-c2ccc(C(F)(F)F)cc2)nc(-c2ccc(C(F)(F)F)cc2)c1` (configuration not stated), the “log(1/C)” value rises from 3.55 to 4.17.

Compared with `CCCCN(CCCC)CC(O)c1cc(C(C)(C)C)nc2c1cc(Cl)c1ccccc12` (configuration not stated), `CCCCN(CCCC)CC(O)c1cc2cc(Cl)c(Cl)cc2c2cc(Cl)c(Cl)cc12` (configuration not stated) is higher in “log(1/C)” value: 2.98 for the first, 4.18 for the second.

Going from `OC(CC1CCCCN1)c1cc(Nc2ccc(Cl)cc2)nc2ccccc12` (configuration not stated) to `OC(CC1CCCCN1)c1cc(-c2ccc(F)cc2)nc2cc(F)ccc12` (configuration not stated), the “log(1/C)” value falls from 2.52 to 2.32.

Compared with `CCCCCCCN(CCCCCCC)CC(O)c1cc2c(Cl)cccc2c2ccccc12` (configuration not stated), `CCCCCCN(CCCCCC)CC(O)c1cccc2c1cc(Br)c1ccccc12` (configuration not stated) is higher in “log(1/C)” value: 2.56 for the first, 2.77 for the second.

Compared with `CCCCN(CCCC)CC(O)c1c(OC)c2cc(Br)ccc2c2ccc(Br)cc12` (configuration not stated), `CCCCCCCN(CCCCCCC)CC(O)c1cc(-c2ccc(Cl)cc2)nc(-c2ccc(Cl)cc2)c1` (configuration not stated) is lower in “log(1/C)” value: 3.94 for the first, 2.67 for the second.

From ChEMBL document CHEMBL3227967, “Quantitative structure-activity relationships in 1-aryl-2-(alkylamino)ethanol antimalarials” (J Med Chem, 1979)
